Reference: the NIST ThermoML archive (doi:10.1021/je1002829)
± gives the expanded uncertainty stated by the source.

Experiments:
[1] = for mass density: 101.33 kPa, Liquid, Vibrating tube method
[2] = xn = mol fraction of the nth substance listed; conditions: x2 = 0

Row | SMILES | surface tension liquid-gas ([1]; 293.15 K) [mN/m] | mass density ([1]; 293.15 K) [kg/m3] | surface tension liquid-gas ([1]; 298.15 K) [mN/m] | mass density ([1]; 298.15 K) [kg/m3] | surface tension liquid-gas ([1]; 303.15 K) [mN/m] | mass density ([1]; 303.15 K) [kg/m3] | surface tension liquid-gas ([1]; 308.15 K) [mN/m] | mass density ([1]; 308.15 K) [kg/m3] | surface tension liquid-gas ([2]; 293.15 K) [mN/m] | surface tension liquid-gas ([2]; 298.15 K) [mN/m] | surface tension liquid-gas ([2]; 303.15 K) [mN/m] | surface tension liquid-gas ([2]; 308.15 K) [mN/m]
1 | O [water] + CCC(=O)O |  |  |  |  |  |  |  |  | 72.58 ± 1.4 | 71.81 ± 1.4 | 71.04 ± 1.4 | 70.23 ± 1.4
2 | CCC(=O)O [propanoic acid] | 26.68 ± 0.78 | 993.42 ± 0.12 | 26.11 ± 0.77 | 988.21 ± 0.12 | 25.7 ± 0.76 | 982.88 ± 0.12 | 25.16 ± 0.76 | 977.43 ± 0.12 |  |  |  | 
3 | O [water] + CCCCC(=O)O |  |  |  |  |  |  |  |  | 72.58 ± 1.4 | 71.81 ± 1.4 | 71.04 ± 1.4 | 70.23 ± 1.4
4 | O [water] + CCCCCC(=O)O |  |  |  |  |  |  |  |  | 72.58 ± 1.4 | 71.81 ± 1.4 | 71.04 ± 1.4 | 70.23 ± 1.4
5 | O [water] + CCCC(=O)O |  |  |  |  |  |  |  |  | 72.58 ± 1.4 | 71.81 ± 1.4 | 71.04 ± 1.4 | 70.23 ± 1.4

The next lines start with results.

Row | surface tension liquid-gas ([1]; 293.15 K) [mN/m] | mass density ([1]; 293.15 K) [kg/m3] | surface tension liquid-gas ([1]; 298.15 K) [mN/m] | mass density ([1]; 298.15 K) [kg/m3] | surface tension liquid-gas ([1]; 303.15 K) [mN/m] | mass density ([1]; 303.15 K) [kg/m3] | surface tension liquid-gas ([1]; 308.15 K) [mN/m] | mass density ([1]; 308.15 K) [kg/m3] | SMILES | surface tension liquid-gas ([2]; 293.15 K) [mN/m] | surface tension liquid-gas ([2]; 298.15 K) [mN/m] | surface tension liquid-gas ([2]; 303.15 K) [mN/m] | surface tension liquid-gas ([2]; 308.15 K) [mN/m]
6 | 28.12 ± 0.8 | 925.38 ± 0.14 | 27.54 ± 0.79 | 921.2 ± 0.14 | 27.12 ± 0.78 | 917.02 ± 0.14 | 26.66 ± 0.78 | 912.6 ± 0.14 | CCCCCC(=O)O [hexanoic acid] |  |  |  | 
7 | 27.13 ± 0.79 | 938.29 ± 0.3 | 26.8 ± 0.79 | 933.9 ± 0.3 | 26.23 ± 0.78 | 929.39 ± 0.3 | 25.8 ± 0.77 | 924.73 ± 0.3 | CCCCC(=O)O [pentanoic acid] |  |  |  | 
8 | 26.73 ± 0.78 | 957.61 ± 0.13 | 26.19 ± 0.77 | 952.77 ± 0.13 | 25.56 ± 0.76 | 947.94 ± 0.13 | 25.03 ± 0.75 | 942.91 ± 0.13 | CCCC(=O)O [butanoic acid] |  |  |  | 
